Test results taken from US20200338195A1, “PHARMACEUTICAL COMPOSITIONS COMPRISING 0.25 MG DOSE OF SYNTHETIC HUMAN PEPTIDES FOR TREATING SYSTEMIC LUPUS ERYTHEMATOSUS” (priority 2016, published 2020).
Entries after “also recorded” stand apart in the source; their conditions may differ. Like-named read-outs stand apart in the source and are kept apart here.

Assays:
subjects with active SLE = assay: Low dose Edratide therapy, 26-week phase 2 dose-ranging study (Example 2); format: in vivo, human
Text: The study will test about 200 study subjects, in about 50 centres. The study population will include seropositive SLE patients (presence of anti-dsDNA antibodies by FARRzyme immunoassay, titer ≥30 IU, and/or the Crithidia luciliae immunofluorescence test, and/or antinuclear antibodies (ANA) ≥1:160 or 1:80 in which case the Adjudication Committee would review the subject's data at baseline.
The total duration of the study is expected to be 34 weeks: • Screening Phase: <30 days (4 weeks) • Phase 2 double-blind treatment phase: 26 weeks (6 months) • Follow-up phase for safety: 4 weeks
Glucocorticoid dosing: It is highly recommended to initiate tapering from the baseline dose of prednisone/prednisone equivalent on or after week 4, as clinically indicated from doses ≥15 mg/day to ≥7.5 mg/day; tapering could continue until week 18. No changes in dose of prednisone/prednisone equivalent doses are allowed during weeks 19-26, the last 8 weeks of the trial. No specific tapering regimen is required, but to be determined as clinically indicated by the investigator.
Active SLE patients will be screened for up to 30 days prior to the baseline visit (visit 2). Each subject will undergo screening evaluations.
The subjects must meet the following inclusion criteria: • 1.Subjects diagnosed with SLE must have a documented medical history to meet Systemic Lupus International […] (SLICC) classification criteria for SLE, or have accumulated 4 classification criteria (1997 revised) of the American College of Rheumatology (ACR) for SLE prior to first dose. • 2. Subjects with active SLE must have: • a. At least one BILAG-A and/or two BILAG-B's, and • b. SLEDAI score of 6 or higher, excluding serology scores, and be • c. Serologically-positive as defined by 2 positive ANA or anti-dsDNA antibody test results (titer ≥30 IU by FARR radioimmunoassay and/or the Crithidia luciliae immunofluorescence test, and/or ANA 1:160 or 1:80 in which case the adjudication committee would review the subject's data) of which ≥1 test result must be obtained during screening • 3. Subjects must be ≥18 years of age • 4. SLE patients on stable SLE treatment regimen for at least three (3) months • 5. SLE patients on 15 mg of prednisone/prednisone equivalent, which have been stable for at least 14 days • 6. Subjects receiving 2 g/days of Mycophenolate mofetil (MMF) or ≤1440 mg of Myfortic • 7. Women of child-bearing potential must practice a medically acceptable method of contraception. Acceptable methods include: surgical sterilization, IUD, hormonal preparations, or double barrier method (e.g. condom or diaphragm with spermicidal) • 8. Subjects must be willing and able to give written informed consent prior to entering the study. • 9. Subjects must understand the requirements of the study and agree to comply with the study protocol.
The presence of any of the following excludes a subject from study enrollment: • i. Subjects with active Lupus nephritis as defined by a protein to creatinine ratio limit of ≥0.75 and/or active urine sediments defined as hematuria (>10 RBC/HPF) and/or RBC casts. • ii. Subjects with active central nervous system (CNS) Lupus as defined by CNS BILAG-A or BILAG-B. • iii. Subjects with active peripheral nervous system (PNS) Lupus as defined by PNS BILAG-A or BILAG-B. • iv. Subjects receiving >15 mg of glucocorticoid at baseline • v. Subjects having recently received • a. Cyclophosphamide (wash-out period 3 months), • b. Cyclosporine (wash-out period 3 months), • c. Rituximab (wash-out period at least 52 weeks provided that the CD19 count has returned to normal), or • d. Belimumab (wash-out period 6 months) • e. Any investigational drug (wash-out period 5 half-lives of elimination) […]

[1] = test system: peripheral blood lymphocytes (PBL) of SLE patients; conditions: cited from earlier work
[2] = test system: mice afflicted with spontaneous or experimental SLE; conditions: mouse, in vivo; cited from earlier work
SLE patients [3] = conditions: cited from earlier work; for incidence of adverse events (AEs), % of the subjects: placebo 75%
[4] = test system: SLE patients with stable, mild to moderate SLE disease; conditions: cited from earlier work
SLE patients [5] = assay: PRELUDE Study, phase 2 placebo-controlled efficacy, tolerability and safety study of three doses of Edratide; conditions: for early withdrawal due to AE, % of subjects: placebo 2.3%; for AE incidence: 26 weeks, placebo 79.3%
Experimental: The total study treatment duration was 26 weeks. Scheduled visits were performed at screening, baseline and at weeks 4, 8, 12, 16, 20, 24, and 26 (termination). […] Non-compliance with the tapering down scheme was not regarded as a protocol violation. During the entire course of the study it was allowed to increase the steroid prednisolone dose to up to 60 mg. Use of intravascular/intramuscular steroid was considered a protocol violation. […] PK assessment of CAPTISOL® for all four treatment groups was conducted following the first dose and Weeks 12 and 26 doses. Disease and drug related immunology parameters were tested at baseline and at several time points thereafter.
The main inclusion criteria of this trial were: • SLEDAI 2K score of 6-12 • Stable concomitant medications (prednisone<40 mg, NSAIDs, antimalarials) for at least 1 month prior to baseline.
The co-primary end-points presented in their hierarchical order below were: • Change from baseline to last observed value (LOV) in SLEDAI 2K score (Landmark Analysis.) • Adjusted Mean SLEDAI 2K (AMS). AMS represents the time weighted average of disease activity as measured by SLEDAI 2K score [area under the curve (AUC) of SLEDAI 2K].
Secondary end-points: • BILAG proportion of responders. BILAG responders were defined as: • a. Non Responder (NR)—same BILAG score in Last Observed Value (LOV) as in baseline in all systems or new A or B in at least one system compared to baseline (other systems may improve or deteriorate). • b. Substantial Responder (SR)—all systems at LOV are either C or D/E providing that at least one system was either A or B at baseline • c. […] Mental component Score. Change from baseline to LOV • SF-36 (QoL) Physical component Score—Change from Baseline to LOV • Time Weighted Average (TWA) on cumulative steroids dose with p.o. administration.
Exploratory end-points: • Primary end-point sensitivity analysis to steroid increase (excluding the observations following steroid increase) • Proportions of Zero SLEDAI Score at LOV • Time to Zero SLEDAI Score • BILAG Total Score—Change from Baseline to LOV
Flares Analysis: • Time to medicinal flare • Time to new BILAG A or at least two new B's • Time to new BILAG A or at least two new B's (excluding persistent activity) • Steroid dose (PO)—Change from baseline to LOV • PGA—Physician's Global Assessment

## H-GYYWSWIRQPPGKGEEWIG-OH [Edratide]
Subjects with active SLE; 0.25 mg sc every week
  global assessment of disease activity based on MCID: significant improvement
  mean Lupus-QOL relative to baseline: significant improvement
Subjects with active SLE; 0.25 mg sc every week, Fortin definition
  mean time to first confirmed major SLE flare: significantly increased
Subjects with active SLE; 0.25 mg sc every week, new BILAG A or two new BILAG B
  mean time to first confirmed severe SLE flare: significantly increased
Subjects with active SLE; 0.25 mg sc every week, specific sub-populations of SLE subjects
  disease parameter/s: improvements of disease parameter/s; also recorded: improvement of at least one disease parameter
Subjects with active SLE; 0.25 mg sc every week, week 26
  mean glucocorticoid dose relative to baseline: significant change
  proportion of subjects achieving MCID of one by SLEDAI-2K Responder Index 50: significant proportion
  proportion of subjects achieving a response by composite SLE Responder Index (cSRI): significant proportion
  proportion of subjects achieving response by the SLE Responder Index: significant proportion
  proportion of subjects having all organ systems either BILAG C or BILAG D/E: significant proportion
Subjects with active SLE; 0.25 mg sc every week, week 26, primary outcome
  proportion of subjects with at least one BILAG A or B organ system at baseline dropping by one score without deterioration to BILAG A or B in any other system: significant proportion
Subjects with active SLE; weekly 0.25 mg dose
  reduction of the amount of corticosteroid therapy required to control disease activity of SLE: effective in enabling reduction
[1]
  proliferative response of PBL of SLE patients to the human anti-DNA 16/6Id mAB: inhibit the proliferative response
[2]
  disease manifestations of mice afflicted with spontaneous or experimental SLE: ameliorate disease manifestations
SLE patients [3]; single sc 0.5, 1 or 2.5 mg, any subject except one in the 0.5 mg group (2 to 10 points at Week 4)
  change of total SLEDAI-2K score during the study: No noteworthy change
SLE patients [3]; single sc injection 0.5 mg
  incidence of adverse events (AEs), % of the subjects: 33%
SLE patients [3]; single sc injection 1 mg
  incidence of adverse events (AEs), % of the subjects: 67%
SLE patients [3]; single sc injection 2.5 mg
  incidence of adverse events (AEs), % of the subjects: 80%
[4]; 0.5 mg group
  subjects with an increase in total SLEDAI-2K score of 0-3 points during the study: Two
[4]; 2.5 mg group
  subjects with an increase in total SLEDAI-2K score of 0-3 points during the study: 2 subjects
[4]; all treatment groups
  subjects reporting AEs during the 8-week follow-up period (off-drug): Approximately 50%
[4]; all treatment groups, decrease = improvement
  adjusted mean SLEDAI (AMS) score, change from baseline to termination visit: −0.1 to −1.5 points
[4]; any treatment group
  mean group total BILAG score during the study: No trend
[4]; sc twice weekly for 4 weeks, 0.5, 1 or 2.5 mg vs placebo
  overall incidence of AEs between all treatment groups: no prominent difference
[4]; sc twice weekly for 4 weeks, 0.5, 1 or 2.5 mg
  serious adverse events (SAE) throughout the study: No SAE was reported
[4]; sc twice weekly for 4 weeks, all treatment groups
  severity of injection site reactions: mild
SLE patients [5]; 0.5 mg Edratide
  post hoc analysis on BILAG responders, system improved: improvement mainly in the cutaneous system
SLE patients [5]; 0.5 mg Edratide (6 subjects), placebo 10.3%
  Serious Adverse Events (SAEs), % of subjects: 7.1%
SLE patients [5]; 1.0 mg dose group (10 subjects), placebo 10.3%
  Serious Adverse Events (SAEs), % of subjects: 11.5%
SLE patients [5]; 2.5 mg dose group (8 subjects), placebo 10.3%
  Serious Adverse Events (SAEs), % of subjects: 9.8%
SLE patients [5]; Edratide 0.5 mg (5 subjects)
  early withdrawal due to AE, % of subjects: 6.0%
SLE patients [5]; Edratide 0.5 mg group, most probably septic shock, classified as not related to study drug
  deaths during the study: One
SLE patients [5]; Edratide 0.5 mg sc
  AE incidence: 82.1%
SLE patients [5]; Edratide 0.5 mg, ITT, LOV vs baseline, placebo 22%, p=0.03
  BILAG substantial responders, % of subjects: 36%
SLE patients [5]; Edratide 0.5 mg, ITT, post hoc, n=14, placebo 29% (n=25), p=0.039
  subjects with a medicinal flare: 17%
SLE patients [5]; Edratide 0.5 mg, ITT, post hoc, p=0.039
  medicinal flare, OR vs placebo: 0.43
SLE patients [5]; Edratide 0.5 mg, ITT, p=0.03, not significant after multiplicity adjustment
  BILAG substantial response, odds ratio (OR) vs placebo: 2.09
SLE patients [5]; Edratide 0.5 mg, opposite trend for the physical score
  change in the SF-36 mental score compared to placebo: slightly better
SLE patients [5]; Edratide 1.0 mg (3 subjects)
  early withdrawal due to AE, % of subjects: 3.4%
SLE patients [5]; Edratide 1 mg sc
  AE incidence: 77%
SLE patients [5]; Edratide 1 mg, p=0.07 without correction for multiple comparison
  BILAG substantial responders, OR vs placebo: 1.85
SLE patients [5]; Edratide 2.5 mg (3 subjects)
  early withdrawal due to AE, % of subjects: 3.7%
SLE patients [5]; Edratide 2.5 mg sc
  AE incidence: 75.6%
SLE patients [5]; Edratide 0.5, 1 and 2.5 mg
  safety signal and dose response from the AEs analysis and additional safety data: no clear dose response and no significant safety signal
SLE patients [5]; Edratide vs placebo
  early terminations due to AEs vs placebo: more often on Edratide than on placebo
SLE patients [5]; ITT, n=26, placebo 20% (n=17), p=0.058, FIG. 4
  cSRI positive responders: 34%
SLE patients [5]; anti-DNA>30 IU at baseline, n=11, placebo 68% (n=21), p=0.05
  BILAG non-responders, seropositive patients: 42%
SLE patients [5]; anti-DNA>30 IU at baseline, placebo 26%, FIG. 2C
  BILAG substantial responders, seropositive patients: 46%
SLE patients [5]; any of the active treatment groups (0.5, 1, 2.5 mg)
  co-primary endpoints (change from baseline to LOV in SLEDAI 2K score; adjusted mean SLEDAI 2K) vs placebo: no differences
SLE patients [5]; change from baseline to LOV
  SF-36 mental or physical scores, differences between the treatment groups: No clinically or statistically significant differences
SLE patients [5]; mean baseline steroids dose 9-10 mg/day of prednisolone
  cumulative change in steroid dose throughout the study, differences between the treatment groups: No clinically or statistically significant differences
SLE patients [5]; no steroids at baseline, 0.5 mg Edratide, placebo 13%, p=0.05
  BILAG substantial responders, % of subjects: 54%
SLE patients [5]; overall, regardless of treatment
  mean reduction from baseline SLEDAI-2K score: about 35%
SLE patients [5]; pooled Edratide group, placebo 10.3%
  SAE incidence: 9.5%
SLE patients [5]; prednisolone dose <20 mg at baseline (pooled cohort of 292 subjects), placebo 19%, p=0.007, FIG. 2B
  BILAG substantial responders, % of subjects: 40%
SLE patients [5]; prednisolone dose <20 mg at baseline, p=0.007
  BILAG substantial response, OR vs placebo: 2.75
